Laboratory results from paper PMC7930471, “Targeting HIF2α-ARNT hetero-dimerisation as a novel therapeutic strategy for pulmonary arterial hypertension” (The European Respiratory Journal, 2021).

Experiments:
rat HIF2α = target: T1, rat HIF2α (Rattus norvegicus, UniProt Q9JHS1); assay: isothermal titration calorimetry (iTC200), purified PAS-B domain titrated into PT2567; type: binding
T1 construct: gene Epas1; PAS-B domain (rat HIF2α-B, made from the human HIF2α-B expression vector by mutating T262L, I265V and I326V)

HIF2α = target: T2, HIF2α (Homo sapiens, UniProt Q99814); assay: as above; type: binding
T2 construct: gene EPAS1; PAS-B domain (human HIF2α-B)
T2 sequence (Q99814 240-350 limits assumed): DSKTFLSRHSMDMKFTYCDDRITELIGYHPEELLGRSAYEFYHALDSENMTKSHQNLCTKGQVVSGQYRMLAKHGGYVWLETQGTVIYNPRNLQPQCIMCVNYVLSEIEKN

T1 sequence (Q9JHS1 240-350 limits assumed): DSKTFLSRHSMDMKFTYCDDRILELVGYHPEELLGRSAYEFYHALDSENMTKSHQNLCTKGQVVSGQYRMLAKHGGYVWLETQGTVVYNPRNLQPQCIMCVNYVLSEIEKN

PT2567
Kd (rat HIF2α): 29 nM | Kd (HIF2α): 30 nM
